For this assay, the system named is IL-2 production. The assay is described as follows: Inhibition of IL-2 production in PHA-activated Jurkat cells. Conditions: Homo sapiens, PHA 2.5 μg/mL, 20 hours. The format is cell-based. On the procedure: Jurkat cells were placed in a 96 well plate (0.5 million cells per well in 1% FBS medium) then test compounds of this invention were added at different concentrations. After 10 minutes, the cells were activated with PHA (final concentration 2.5 μg/mL) and incubated for 20 hours at 37° C. under CO2. The final volume was 200 μL. Following incubation, the cells were centrifuged and the supernatants collected and stored at −70° C. prior to assaying for IL-2 production. A commercial kit (IL-2 Eli-pair, Diaclone Research, Besancon, France) was used to detect production of IL-2, from which dose response curves were obtained. The IC50 value was calculated as the concentration at which. 50% of maximum IL-2 production after stimulation was inhibited versus a non-stimulation control.

SMILES strings stand for the structures.

IC50 data for 36 molecules are collected here from patent publication US20130142831A1, “COMPOUNDS FOR INFLAMMATION AND IMMUNE-RELATED USES” (Synta Pharmaceuticals Corp., priority 2004, published 2013).

As a reminder, the IC50 is the concentration at which inhibition is half-maximal. A low value points to greater potency in that assay.

`COc1ccc2c(c1)nc(C(F)(F)F)n2-c1ccc(NC(=O)c2cc(F)cc(F)c2F)cc1` [Compound 2, 2,3,5-Trifluoro-N-[4-(2-trifluoromethyl-5-methoxy-benzoimidazol-1-yl)-phenyl]-benzamide]: for the setting “bins given in nM”, the IC50 is < 100 nM.
The same measure, in the same setting: for `COc1ccc2c(c1)nc(C(F)(F)F)n2-c1ccc(NC(=O)c2ccc(F)c(F)c2F)cc1` [Compound 3, 2,3,4-Trifluoro-N-[4-(2-trifluoromethyl-5-methoxy-benzoimidazol-1-yl)-phenyl]-benzamide] the value was < 100 nM; for `COc1ccc2c(c1)nc(C(F)(F)F)n2-c1ccc(NC(=O)c2cccc(F)c2F)cc1` [Compound 4, 2,3-Difluoro-N-[4-(2-trifluoromethyl-5-methoxy-benzoimidazol-1-yl)-phenyl]-benzamide], < 100 nM; for `COc1ccc2c(c1)nc(C(F)(F)F)n2-c1ccc(NC(=O)c2ccncc2C)cc1` [Compound 5, 3-Methyl-N-[4-(2-trifluoromethyl-5-methoxy-benzoimidazol-1-yl)-phenyl]-isonicotinamide], < 100 nM.
Turning to `COc1ccc2c(c1)nc(C(F)(F)F)n2-c1ccc(NC(=O)c2ccncc2F)cc1` [Compound 6, 3-Fluoro-N-[4-(2-trifluoromethyl-5-methoxy-benzoimidazol-1-yl)-phenyl]-isonicotinamide], the IC50 (bins given in nM) is < 100 nM.
Same read-out and setting: for `COc1ccc2c(c1)nc(C(F)(F)F)n2-c1ccc(NC(=O)c2cc(F)c(Cl)cc2Cl)cc1` [Compound 7, 2,4-Dichloro-5-fluoro-N-[4-(2-trifluoromethyl-5-methoxy-benzoimidazol-1-yl)-phenyl]-benzamide] the value was < 100 nM; for `O=C(Nc1ccc(-c2c(C(F)(F)F)cc3n2CCCC3)cc1)c1cccc(F)c1F` [Compound 8, 2,3-Difluoro-N-[4-(2-trifluoromethyl-5,6,7,8-tetrahydroindolizin-3-yl)-phenyl]-benzamide], < 100 nM; for `COc1ccc2c(c1)nc(C(F)(F)F)n2-c1ccc(NC(=O)c2cccc([N+](=O)[O-])c2)cc1` [Compound 10, 3-Nitro-N-[4-(2-trifluoromethyl-5-methoxy-benzoimidazol-1-yl)-phenyl]-benzamide], < 100 nM.
`CSc1nc2ccccc2n1-c1ccc(NC(=O)c2cccc(F)c2F)cc1` [Compound 11, 2,3-Difluoro-N-[4-(2-methylsulfanyl-benzoimidazol-1-yl)-phenyl]-benzamide]: the IC50 (bins given in nM) is < 100 nM.
On the same count and under the same terms, in the case of `Fc1cccc(C(=S)Nc2ccc(-n3c(C(F)(F)F)nc4ccccc43)cc2)c1F` [Compound 12, 2,3-Difluoro-N-[4-(2-trifluoromethyl-benzoimidazol-1-yl)-phenyl]-thiobenzamide] it was < 100 nM.
The same measure, in the same setting: for `O=C(Nc1ccc(-n2c(C(F)(F)F)nc3ccccc32)cc1)c1cccc(Cl)c1Cl` [Compound 13, 2,3-Dichloro-N-[4-(2-trifluoromethyl-benzoimidazol-1-yl)-phenyl]-benzamide] the value was < 100 nM.
Still for that read-out and setting: for `COc1ccc2nc(C(F)(F)F)n(-c3ccc(NC(=O)c4cccc(F)c4F)cc3)c2c1` [Compound 14, 2,3-Difluoro-N-[4-(2-trifluoromethyl-6-methoxy-benzoimidazol-1-yl)-phenyl]-benzamide] the value was < 100 nM.
Where the note is “bins given in nM”, `O=C(Nc1ccc(-n2c(C(F)(F)F)nc3ccccc32)cc1)c1cccc(Cl)c1F` [Compound 15] displayed an IC50 of 100 to 500 nM.
Same read-out and setting: in the case of `Nc1cc(F)c(F)c(C(=O)Nc2ccc(-n3c(C(F)(F)F)nc4ccccc43)cc2)c1F` [Compound 16, 2,3,6-Trifluoro-5-amino-N-[4-(2-trifluoromethyl-benzoimidazol-1-yl)-phenyl]-benzamide] it was 100 to 500 nM.
On the same count and under the same terms, for `Cc1cc(NC(=O)c2cccc(F)c2F)ccc1-n1c(C(F)(F)F)nc2ccccc21` [Compound 17, 2,3-Difluoro-N-[3-methyl-4-(2-trifluoromethyl-benzoimidazol-1-yl)-phenyl]-benzamide] the value was 100 to 500 nM; for `Cc1ccccc1C(=O)Nc1ccc(-c2c(C(F)(F)F)cc3n2CCCC3)cc1` [Compound 18, 2-Methyl-N-[4-(2-trifluoromethyl-5,6,7,8-tetrahydroindolizin-3-yl)-phenyl]-benzamide], 100 to 500 nM; for `N#Cc1ccc2nc(C(F)(F)F)n(-c3ccc(NC(=O)c4cccc(F)c4F)cc3)c2c1` [Compound 20, 2,3-Difluoro-N-[4-(2-trifluoromethyl-6-cyano-benzoimidazol-1-yl)-phenyl]-benzamide], 100 to 500 nM.
For the molecule `Nc1cccc2c1nc(C(F)(F)F)n2-c1ccc(NC(=O)c2cccc(F)c2F)cc1` [Compound 21, 2,3-Difluoro-N-[4-(2-trifluoromethyl-4-amino-benzoimidazol-1-yl)-phenyl]-benzamide], the IC50 (bins given in nM) lay in the range of 100 to 500 nM.
Same read-out and setting: for `CC(C)(C)OC(=O)Nc1cc(F)c(F)c(C(=O)Nc2ccc(-n3c(C(F)(F)F)nc4ccccc43)cc2)c1F` [Compound 22, N-(3-{N-[4-(2-trifluoromethyl-benzoimidazol-1-yl)-phenyl]-carbamoyl}-2,4,5-trifluoro-phenyl)-carbamic acid t-butyl ester] the value was 100 to 500 nM; for `O=C(Nc1ccc(-n2c(Cl)nc3ccccc32)cc1)c1cccc(F)c1F` [Compound 23, 2,3-Difluoro-N-[4-(2-chloro-benzoimidazol-1-yl)-phenyl]-benzamide], 100 to 500 nM; for `Cc1nnsc1C(=O)Nc1ccc(-c2c(Cl)cc3n2CCCC3)cc1` [Compound 24, 4-Methyl-[1,2,3]thiadiazole-5-carboxylic acid {N-[4-(2-chloro-5,6,7,8-tetrahydroindolizin-3-yl)-phenyl]} amide], 100 to 500 nM.
On the same count and under the same terms, for `O=C(Nc1ccc(-n2c(C(F)(F)F)nc3ccccc32)cc1)c1cc(F)ccc1F` [Compound 26, 2,5-Difluoro-N-[4-(2-trifluoromethyl-benzoimidazol-1-yl)-phenyl]-benzamide] the value was 100 to 500 nM; for `O=C(Nc1ccc(-n2c(C(F)(F)F)nc3ccccc32)cc1)c1ccncc1F` [Compound 27, 3-Fluoro-N-[4-(2-trifluoromethyl-benzoimidazol-1-yl)-phenyl]-isonicotinamide], 100 to 500 nM; for `O=C(Nc1ccc(-n2c(Br)nc3ccccc32)cc1)c1cccc(F)c1F` [Compound 28, 2,3-Difluoro-N-[4-(2-bromo-benzoimidazol-1-yl)-phenyl]-benzamide], 100 to 500 nM.
On the same count and under the same terms, for `Cc1nnsc1C(=O)Nc1ccc(-n2c(C(F)(F)F)nc3ccccc32)cc1` [Compound 29, 4-Methyl-[1,2,3]thiadiazole-5-carboxylic acid {N-[4-(2-trifluoromethyl-benzoimidazol-1-yl)-phenyl]} amide] the value was 100 to 500 nM.
In turn, `O=C(Nc1ccc(-n2c(C(F)(F)F)nc3ccccc32)c(C(F)(F)F)c1)c1cccc(F)c1F` [Compound 30, 2,3-Difluoro-N-[3-trifluoromethyl-4-(2-trifluoromethyl-benzoimidazol-1-yl)-phenyl]-benzamide] displayed an IC50 (bins given in nM) of 100 to 500 nM.
Consider `CC(C)(C)OC(=O)Nc1ccc(C(=O)Nc2ccc(-n3c(C(F)(F)F)nc4ccccc43)cc2)c(F)c1F` [Compound 31, N-(4-{N-[4-(2-trifluoromethyl-benzoimidazol-1-yl)-phenyl]-carbamoyl}-2,3-difluoro-phenyl)-carbamic acid t-butyl ester], for which the IC50 (bins given in nM) fell in the range of 100 to 500 nM.
As to `COc1cc2nc(C(F)(F)F)n(-c3ccc(NC(=O)c4cccc(F)c4F)cc3)c2cc1OC` [Compound 32, 2,3-Difluoro-N-[4-(2-trifluoromethyl-5,6-dimethoxy-benzoimidazol-1-yl)-phenyl]-benzamide], the IC50 (bins given in nM) lay within 100 to 500 nM.
On the same count and under the same terms, for `O=C(Nc1ccc(-n2c(I)nc3ccccc32)cc1)c1cccc(F)c1F` [Compound 33, 2,3-Difluoro-N-[4-(2-iodo-benzoimidazol-1-yl)-phenyl]-benzamide] the value was 100 to 500 nM; for `Fc1ccc(F)c(NC(=S)Nc2ccc(-n3c(C(F)(F)F)nc4ccccc43)nc2)c1` [Compound 34, N′-[2-(2-trifluoromethyl-benzoimidazol-1-yl)-pyrid-5-yl]-N-(2,5-difluoro-phenyl)-thiourea], 100 to 500 nM.
Molecule `CC(C)(C)c1ccc2c(c1)nc(C(F)(F)F)n2-c1ccc(NC(=O)c2cccc(F)c2F)cc1` [Compound 35, 2,3-Difluoro-N-[4-(2-trifluoromethyl-5-tert-butyl-benzoimidazol-1-yl)-phenyl]-benzamide] gave an IC50 (bins given in nM) of 100 to 500 nM.
With `N#Cc1cc(NC(=O)c2cccc(F)c2F)ccc1-n1c(C(F)(F)F)nc2ccccc21` [Compound 37, 2,3-Difluoro-N-[3-cyano-4-(2-trifluoromethyl-benzoimidiazol-1-yl)-phenyl]-benzamide], the IC50 (bins given in nM) fell in the range of 100 to 500 nM.
Still for that read-out and setting: for `O=C(Nc1ccc(-n2c(C(F)(F)F)nc3ccccc32)c(Cl)c1)c1cc(F)ccc1F` [Compound 38, 2,5-Difluoro-N-[3-chloro-4-(2-trifluoromethyl-benzoimidazol-1-yl)-phenyl]-benzamide] the value was 100 to 500 nM.
In the case of `Nc1ccc2c(c1)nc(C(F)(F)F)n2-c1ccc(NC(=O)c2cccc(F)c2F)cc1` [Compound 39, 2,3-Difluoro-N-[4-(2-trifluoromethyl-5-amino-benzoimidazol-1-yl)-phenyl]-benzamide], the IC50 (bins given in nM) fell in the range of 100 to 500 nM.
Same read-out and setting: in the case of `C[S+]([O-])c1nc2ccccc2n1-c1ccc(NC(=O)c2cccc(F)c2F)cc1` (stereo not drawn) [Compound 40, 2,3-Difluoro-N-[4-(2-methanesulfinyl-benzoimidazol-1-yl)-phenyl]-benzamide] it was 100 to 500 nM.
As to `CC(C)c1nc2ccccc2n1-c1ccc(NC(=O)c2cccc(F)c2F)cc1` [Compound 49, 2,3-Difluoro-N-[4-(2-isopropyl-benzoimidazol-1-yl)-phenyl]-benzamide], where the note is “bins given with μM limit”, the IC50 is > 1000 nM.
